Reference: ChEMBL document CHEMBL1201862, “PubChem BioAssay data set” (2004)
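Growth conditions: 96-well plates. Treatment: test compound, 48 hours, 5 concentrations. Analysis: linear interpolation between bracketing concentrations; unreached endpoints set to highest concentration. GI50 = concentration required for 50% inhibition of growth.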 Calls of active or inactive are those of the source. Cut-off read from the data, not from the text of the source: active = GI50 up to about 1.1 µM and inactive = higher.

Legend:
Test in all cases: DTP human tumour cell line panel, 48 h
UACC-257 = tested on: UACC-257
M14 = tested on: M14
SF-268 = tested on: SF-268
A549 = tested on: A549
HCC 2998 = tested on: HCC 2998
HOP-62 = tested on: HOP-62
LXFL 529 = tested on: LXFL 529
HCT-116 = tested on: HCT-116
MOLT-4 = tested on: MOLT-4
U-251 = tested on: U-251
Malme-3M = tested on: Malme-3M
HT-29 = tested on: HT-29
RXF 631 = tested on: RXF 631
M19-MEL = tested on: M19-MEL
A498 = tested on: A498
XF498 = tested on: XF498
UO-31 = tested on: UO-31
DMS-114 = tested on: DMS-114
SF-295 = tested on: SF-295
CCRF-CEM = tested on: CCRF-CEM
ACHN = tested on: ACHN
SNB-19 = tested on: SNB-19
SR = tested on: SR
NCI-H226 = tested on: NCI-H226
SK-MEL-5 = tested on: SK-MEL-5
DLD-1 = tested on: DLD-1
SK-OV-3 = tested on: SK-OV-3
IGROV-1 = tested on: IGROV-1
UACC-62 = tested on: UACC-62
K562 = tested on: K562
TK-10 = tested on: TK-10
SN12C = tested on: SN12C
OVCAR-4 = tested on: OVCAR-4
NCI-H522 = tested on: NCI-H522
NCI-H460 = tested on: NCI-H460
CAKI-1 = tested on: CAKI-1
OVCAR-3 = tested on: OVCAR-3
HOP-92 = tested on: HOP-92
DMS-273 = tested on: DMS-273
786-0 = tested on: 786-0
KM-20L2 = tested on: KM-20L2
OVCAR-5 = tested on: OVCAR-5
LOX IMVI = tested on: LOX IMVI
HL-60 = tested on: HL-60
NCI-H23 = tested on: NCI-H23
COLO 205 = tested on: COLO 205
RXF 393 = tested on: RXF 393
SW-620 = tested on: SW-620
EKVX = tested on: EKVX
SNB-75 = tested on: SNB-75
SK-MEL-28 = tested on: SK-MEL-28
KM12 = tested on: KM12
OVCAR-8 = tested on: OVCAR-8
HCT-15 = tested on: HCT-15
HOP-18 = tested on: HOP-18
SK-MEL-2 = tested on: SK-MEL-2
SF-539 = tested on: SF-539
SNB-78 = tested on: SNB-78
RPMI-8226 = tested on: RPMI-8226

For COC(=O)CC1CC2(C(=O)OC)c3[nH]c4ccccc4c3CCN2C1=O (stereo not given), the GI50 (UACC-257) was > 100 µM (inactive), the GI50 (M14) was > 100 µM (inactive) and the GI50 (SF-268) was > 100 µM (inactive). For the same compound, the GI50 (A549) was > 100 µM (inactive), the GI50 (HCC 2998) was > 100 µM (inactive) and the GI50 (HOP-62) was > 100 µM (inactive). For the same compound, the GI50 (LXFL 529) was > 100 µM (inactive), the GI50 (HCT-116) was > 100 µM (inactive) and the GI50 (MOLT-4) was > 100 µM (inactive). For the same compound, the GI50 (U-251) was > 100 µM (inactive), the GI50 (Malme-3M) was > 100 µM (inactive) and the GI50 (HT-29) was > 100 µM (inactive). For the same compound, the GI50 (RXF 631) was 17.5 µM (inactive), the GI50 (M19-MEL) was > 100 µM (inactive) and the GI50 (A498) was > 100 µM (inactive). For the same compound, the GI50 (XF498) was > 100 µM (inactive), the GI50 (UO-31) was > 100 µM (inactive) and the GI50 (DMS-114) was > 100 µM (inactive). The GI50 (SF-295) was > 100 µM (inactive), the GI50 (CCRF-CEM) was > 100 µM (inactive) and the GI50 (ACHN) was > 100 µM (inactive). The GI50 (SNB-19) was > 100 µM (inactive), the GI50 (SR) was > 100 µM (inactive) and the GI50 (NCI-H226) was > 100 µM (inactive). For the same compound, the GI50 (SK-MEL-5) was > 100 µM (inactive), the GI50 (DLD-1) was > 100 µM (inactive) and the GI50 (SK-OV-3) was > 100 µM (inactive). The GI50 (IGROV-1) was > 100 µM (inactive), the GI50 (UACC-62) was > 100 µM (inactive) and the GI50 (K562) was > 100 µM (inactive). The GI50 (TK-10) was > 100 µM (inactive), the GI50 (SN12C) was > 100 µM (inactive) and the GI50 (OVCAR-4) was > 100 µM (inactive). The GI50 (NCI-H522) was > 100 µM (inactive), the GI50 (NCI-H460) was > 100 µM (inactive) and the GI50 (CAKI-1) was > 100 µM (inactive). For the same compound, the GI50 (OVCAR-3) was > 100 µM (inactive), the GI50 (HOP-92) was > 100 µM (inactive) and the GI50 (DMS-273) was > 100 µM (inactive). The GI50 (786-0) was > 100 µM (inactive), the GI50 (KM-20L2) was > 100 µM (inactive) and the GI50 (OVCAR-5) was > 100 µM (inactive). For the same compound, the GI50 (LOX IMVI) was > 100 µM (inactive), the GI50 (HL-60) was > 100 µM (inactive) and the GI50 (NCI-H23) was > 100 µM (inactive). For the same compound, the GI50 (COLO 205) was > 100 µM (inactive), the GI50 (RXF 393) was > 100 µM (inactive) and the GI50 (SW-620) was > 100 µM (inactive). The GI50 (EKVX) was > 100 µM (inactive), the GI50 (SNB-75) was > 100 µM (inactive) and the GI50 (SK-MEL-28) was > 100 µM (inactive). The GI50 (KM12) was > 100 µM (inactive), the GI50 (OVCAR-8) was > 100 µM (inactive) and the GI50 (HCT-15) was greater than 100 µM. For the same compound, the GI50 (HOP-18) was > 100 µM (inactive), the GI50 (SK-MEL-2) was > 100 µM (inactive) and the GI50 (SF-539) was > 100 µM (inactive). The GI50 (SNB-78) was > 100 µM (inactive).
In the case of O=C1CCNC(=O)NC1, the GI50 (UACC-257) is reported as > 100 µM (inactive), the GI50 (M14) is reported as > 100 µM (inactive) and the GI50 (SF-268) is reported as > 100 µM (inactive). For the same compound, the GI50 (A549) was > 100 µM (inactive), the GI50 (HOP-62) was > 100 µM (inactive) and the GI50 (LXFL 529) was > 100 µM (inactive). For the same compound, the GI50 (HCT-116) was > 100 µM (inactive), the GI50 (MOLT-4) was 23.1 µM (inactive) and the GI50 (U-251) was > 100 µM (inactive). The GI50 (Malme-3M) was > 100 µM (inactive), the GI50 (HT-29) was > 100 µM (inactive) and the GI50 (RXF 631) was > 100 µM (inactive). The GI50 (M19-MEL) was > 100 µM (inactive), the GI50 (A498) was > 100 µM (inactive) and the GI50 (XF498) was > 100 µM (inactive). The GI50 (UO-31) was > 100 µM (inactive), the GI50 (DMS-114) was > 100 µM (inactive) and the GI50 (SF-295) was > 100 µM (inactive). The GI50 (CCRF-CEM) was > 100 µM (inactive), the GI50 (ACHN) was > 100 µM (inactive) and the GI50 (SNB-19) was > 100 µM (inactive). The GI50 (SR) was > 100 µM (inactive), the GI50 (NCI-H226) was > 100 µM (inactive) and the GI50 (SK-MEL-5) was > 100 µM (inactive). The GI50 (DLD-1) was > 100 µM (inactive), the GI50 (SK-OV-3) was > 100 µM (inactive) and the GI50 (IGROV-1) was > 100 µM (inactive). The GI50 (RPMI-8226) was > 100 µM (inactive), the GI50 (UACC-62) was > 100 µM (inactive) and the GI50 (K562) was > 100 µM (inactive). For the same compound, the GI50 (TK-10) was > 100 µM (inactive), the GI50 (SN12C) was > 100 µM (inactive) and the GI50 (OVCAR-4) was > 100 µM (inactive). The GI50 (NCI-H522) was > 100 µM (inactive), the GI50 (NCI-H460) was > 100 µM (inactive) and the GI50 (CAKI-1) was > 100 µM (inactive). The GI50 (OVCAR-3) was > 100 µM (inactive), the GI50 (HOP-92) was > 100 µM (inactive) and the GI50 (DMS-273) was > 100 µM (inactive). For the same compound, the GI50 (786-0) was > 100 µM (inactive), the GI50 (KM-20L2) was > 100 µM (inactive) and the GI50 (OVCAR-5) was > 100 µM (inactive). For the same compound, the GI50 (LOX IMVI) was > 100 µM (inactive), the GI50 (HL-60) was > 100 µM (inactive) and the GI50 (COLO 205) was > 100 µM (inactive). The GI50 (RXF 393) was > 100 µM (inactive), the GI50 (SW-620) was > 100 µM (inactive) and the GI50 (EKVX) was > 100 µM (inactive). The GI50 (SNB-75) was > 100 µM (inactive), the GI50 (SK-MEL-28) was > 100 µM (inactive) and the GI50 (KM12) was > 100 µM (inactive). The GI50 (OVCAR-8) was > 100 µM (inactive), the GI50 (HCT-15) was greater than 100 µM and the GI50 (HOP-18) was > 100 µM (inactive). For the same compound, the GI50 (SK-MEL-2) was > 100 µM (inactive) and the GI50 (SNB-78) was > 100 µM (inactive).
O=C(O)C[C@H]1CCCCC12CCOC2=O (stereo not given in full) was tested, and the GI50 (UACC-257) was > 100 µM (inactive), the GI50 (M14) was > 100 µM (inactive) and the GI50 (SF-268) was > 100 µM (inactive). The GI50 (A549) was > 100 µM (inactive), the GI50 (HCC 2998) was > 100 µM (inactive) and the GI50 (HOP-62) was > 100 µM (inactive). For the same compound, the GI50 (LXFL 529) was > 100 µM (inactive), the GI50 (HCT-116) was > 100 µM (inactive) and the GI50 (MOLT-4) was > 100 µM (inactive). The GI50 (U-251) was > 100 µM (inactive), the GI50 (HT-29) was > 100 µM (inactive) and the GI50 (RXF 631) was > 100 µM (inactive). For the same compound, the GI50 (M19-MEL) was > 100 µM (inactive), the GI50 (XF498) was > 100 µM (inactive) and the GI50 (UO-31) was > 100 µM (inactive). The GI50 (DMS-114) was > 100 µM (inactive), the GI50 (SF-295) was > 100 µM (inactive) and the GI50 (CCRF-CEM) was > 100 µM (inactive). For the same compound, the GI50 (ACHN) was > 100 µM (inactive), the GI50 (SNB-19) was > 100 µM (inactive) and the GI50 (SR) was > 100 µM (inactive). The GI50 (NCI-H226) was > 100 µM (inactive), the GI50 (SK-MEL-5) was > 100 µM (inactive) and the GI50 (DLD-1) was > 100 µM (inactive). For the same compound, the GI50 (SK-OV-3) was > 100 µM (inactive), the GI50 (IGROV-1) was > 100 µM (inactive) and the GI50 (RPMI-8226) was > 100 µM (inactive). The GI50 (UACC-62) was > 100 µM (inactive), the GI50 (K562) was > 100 µM (inactive) and the GI50 (TK-10) was > 100 µM (inactive). For the same compound, the GI50 (SN12C) was > 100 µM (inactive), the GI50 (OVCAR-4) was > 100 µM (inactive) and the GI50 (NCI-H522) was > 100 µM (inactive). The GI50 (NCI-H460) was > 100 µM (inactive), the GI50 (CAKI-1) was > 100 µM (inactive) and the GI50 (OVCAR-3) was > 100 µM (inactive). The GI50 (HOP-92) was > 100 µM (inactive), the GI50 (DMS-273) was > 100 µM (inactive) and the GI50 (786-0) was > 100 µM (inactive). The GI50 (KM-20L2) was > 100 µM (inactive), the GI50 (OVCAR-5) was > 100 µM (inactive) and the GI50 (LOX IMVI) was > 100 µM (inactive). For the same compound, the GI50 (HL-60) was > 100 µM (inactive), the GI50 (NCI-H23) was > 100 µM (inactive) and the GI50 (COLO 205) was > 100 µM (inactive). The GI50 (RXF 393) was > 100 µM (inactive), the GI50 (SW-620) was > 100 µM (inactive) and the GI50 (EKVX) was > 100 µM (inactive). The GI50 (SNB-75) was > 100 µM (inactive), the GI50 (SK-MEL-28) was > 100 µM (inactive) and the GI50 (KM12) was > 100 µM (inactive). The GI50 (OVCAR-8) was > 100 µM (inactive), the GI50 (HOP-18) was > 100 µM (inactive) and the GI50 (SK-MEL-2) was 87.5 µM (inactive). For the same compound, the GI50 (SF-539) was > 100 µM (inactive) and the GI50 (SNB-78) was > 100 µM (inactive).
